{
  "source": "patent US12318393B2",
  "about": "“Modulators of orphan nuclear receptors for NASH and other metabolic disorders” (Emory University, priority 2018, dated 2025)",
  "key": {"miR-122": {"tested_on": "miR-122", "assay": "Expression of RORα-regulated microRNA in Huh-7 cells (qRT-PCR)", "type": "cell-based, human", "details": "1 μM, 24 hours", "description": "Secreted microRNA levels in the medium of Huh-7 cells were analyzed by qRT-PCR and were normalized to spiked C. elegans miR-39. miR-18 and miR-93 served as controls for secreted microRNA and were not affected following Compound 1 addition.\nRNA extraction and quantitative Real-Time PCR analysis. Total RNA, including small RNAs, were isolated from 200 μL of plasma or culture media samples using the miRNeasy Mini kit (Qiagen, Valencia, CA, USA) with 2 minor modifications. First, 200 μl of plasma or culture media were lysed with 1 ml of Qiazol solution. Second, a 50 pmol/l of synthesized single strand Caenorhabditis elegans miRNA (cel-miR-39) was added as the spike-in control to monitor extraction efficiency. The remainder of the RNA extraction was performed according to the manufacturer's instructions. miRNAs were eluted with 30 μl of RNase-free water. […] The fold expression and statistical significance were calculated using the 2-ΔΔ Ct method. […]"}, "miR-122 and Gpase6": {"tested_on": "miR-122 and Gpase6", "assay": "Modulation of RORα-regulated genes in healthy C57BL/6 mice", "type": "in vivo", "details": "7.5 mg/kg i.p. once", "description": "Healthy C57BL/6 mice were injected i.p. once with 7.5 mg/kg Compound 1 or saline control. Mice were sacrificed at 1, 2, and 7 day time points post-injection. miR-122 and Gpase 6 mRNA levels were determined by qRT-PCR for each time point. MicroRNA levels were normalized to RNU6; plasma miR-122 was normalized to spiked in C. elegans miR-39; and mRNA levels were normalized to HPRT.\nRNA extraction and quantitative Real-Time PCR analysis. Total RNA, including small RNAs, were isolated from 200 μL of plasma or culture media samples using the miRNeasy Mini kit (Qiagen, Valencia, CA, USA) with 2 minor modifications. First, 200 μl of plasma or culture media were lysed with 1 ml of Qiazol solution. Second, a 50 pmol/l of synthesized single strand Caenorhabditis elegans miRNA (cel-miR-39) was added as the spike-in control to monitor extraction efficiency. The remainder of the RNA extraction was performed according to the manufacturer's instructions. miRNAs were eluted with 30 μl of RNase-free water. Total RNA, including miRNAs, from cells or tissues were isolated using TRIzol reagent (Invitrogen, Carlsbad, CA, USA). cDNA was synthesized using the Quanta Biosciences qScript™ cDNA Synthesis Kit (95047-100) for mRNA analysis, and using the qScript™ microRNA cDNA Synthesis Kit (95107-100) for miRNAs analysis. qRT-PCR of miRNAs and mRNA was performed using the ABI 7900 HT Real-Time PCR System and a SYBR Green PCR Kit: Quanta Cat. #84018 and #84071 respectively. The fold expression and statistical significance were calculated using the 2-ΔΔ Ct method. All experiments were performed in triplicates."}, "[1]": {"tested_on": "C57BL/6 mice fed with high fat diet (HFD)", "assay": "HFD-fed C57BL/6 mouse model of NASH, Compound 1 15 mg/kg", "type": "in vivo", "description": "To determine the liver and muscle lipid content, muscle and liver tissues (40-80 mg) were homogenized in 0.5 ml of chloroform: Tris solution (v/v, 1:1), the homogenate was transferred to 1 ml of chloroform:methanol solution (v/v, 2:1) centrifuged at 3000 g (at −2° C.) for 10 min (Heraeus Megafuge 16R centrifuge). The organic phase was mixed with 5% Triton X100 in chloroform, dried and re-dissolved in water. After lipid extraction, triglyceride (TG) concentration in samples was measured with Triglyceride Quantification Kit (BioVision), according to the manufactures instructions. Plasma Free fatty acids and β-hydroxybutyrate were determined utilizing commercial colorimetric kits (BioVision) directly from plasma samples.\nMale C57BL/6J mice, 7 to 8 weeks old, were housed randomly in standard cages and were fed a HFD, or atherogenic diet (consisting 1% Chol and 0.5% cholic acid, see also Table 3). All mice had free access to water during the experimental period. During the feeding period body weight was monitored every 3 days. In the HFD experiment, after 4 or 6 weeks, the resultant obese mice were treated with antagomiR-122 ([…] once a week for 3 weeks), or i.p. injected with Compound 1 (RORα agonist, 7.5 mg/kg twice a week for 3 weeks; or 15 mg/kg 3 times a week for 3 weeks). The obese control (HFD) group was administered only saline with DMSO and antagomiR-control. After 3 weeks of treatment mice were sacrificed and livers were taken for RNA-seq analysis. Livers, white adipose, and skeletal muscle tissues were frozen in liquid nitrogen or in optimum cutting temperature embedded frozen blocks, for further RNA and histologic analysis. In the atherogenic diet experiment mice were treated with 15 mg/kg Compound 1 after 3 weeks with the diet. After 3.5 weeks of treatment, mice were sacrificed, and the livers were frozen in liquid nitrogen or in optimum cutting temperature embedded frozen blocks. Plasma was collected from atherogenic diet-fed mice and saved in −20° C. for ALT and AST analysis using the Reflotron® Analyzer and test-strips (Roche).\nExperimental design: C57BL/6 mice fed for 6 weeks with high fat diet (HFD) were injected with 15 mg/kg Compound 1 (or saline+DMSO) 3 times a week for 3 weeks (n=6).\nExperimental design: C57BL/6 mice fed for 6 weeks with HFD were injected with 15 mg/kg Compound 1 (or saline+DMSO) 3 times a week for 3 weeks (n=6)."}, "[2]": {"details": "15 mg/kg 3 times a week for 3 weeks"}},
  "data": [
    {"smiles": "O=C1Nc2cc(C(=O)N3CCC(Cc4ccccc4)CC3)ccc2Nc2ccccc21", "note": "[Compound 1]", "values": [
      {"measurement": "secreted miR-18 and miR-93 levels in medium (control microRNAs)", "setting": "miR-122", "value": "not affected"},
      {"measurement": "secretion of miR-122 (relative microRNA levels in Huh7 medium)", "setting": "miR-122; vs DMSO", "value": "specifically increases"},
      {"measurement": "miR-18 and miR-126 levels (controls)", "setting": "miR-122 and Gpase6; over 7 days", "value": "not affected"},
      {"measurement": "Gpase6 mRNA (RORα-regulated gene)", "setting": "miR-122 and Gpase6; up to 7 days post-injection", "value": "significantly up-regulated"},
      {"measurement": "miR-122 levels in plasma and liver", "setting": "miR-122 and Gpase6; up to 7 days post-injection", "value": "increased"},
      {"measurement": "body weight at end of experiment", "setting": "[1]; [2]", "value": "significantly reduced"},
      {"measurement": "decrease of (liver) triglyceride levels compared to untreated HFD mice", "setting": "[1]; [2]", "value": 5, "unit": "fold"},
      {"measurement": "expression and secretion of miR-122 and precursors in plasma and liver", "setting": "[1]; [2]", "value": "induced"},
      {"measurement": "hepatic lipid droplets", "setting": "[1]; [2]", "value": "reduced"},
      {"measurement": "liver/body weight ratio, treated vs untreated group", "setting": "[1]; [2]", "value": "decrease"},
      {"measurement": "expression of RORα-regulated genes FGF21 and Gpase6", "setting": "[1]; 15 mg/kg 3 times a week for 3 weeks, liver", "value": "significantly induced"},
      {"measurement": "WAT inflammation", "setting": "[1]; mice with established NASH on HFD", "value": "reducing"}
    ]}
  ]
}
